According to patent US20110086914A1, “Methods for Treating Traumatic Brain Injury” (priority 2009, published 2011):

What was measured:
[1] = Serum phospholipid fatty acid levels after DHA supplementation following brain trauma; assay type: in vivo, Sprague-Dawley rats; conditions: for increased levels of serum DHA over initial levels: dietary, serum phospholipids
Protocol: (§1) DHA supplementation and serum level monitoring. The four groups received dietary supplementation with DHA (Martek, Columbia, Md.). Two of the four groups received dietary supplementation DHA daily in the following amounts: Group 1, 10 mg/kg/day; Group 2, 40 mg/kg/day. Groups 3 served as an unsupplemented control, and Group 4 underwent sham injury and received no supplementation. Each group received rat chow ad lib and were housed in a small animal vivarium under veterinary staff supervision. Fatty acid blood testing was performed prior to the injury and at the end of the 30 days of DHA supplementation by analyzing the isolated serum phospholipids (including DHA, EPA and Arachidonic acid) from 50 microliter blood samples using a previously described method (Holub and Skeaff, Methods Enzymol. 141:234-44 (1987); Nutrasource Diagnostics, University of Guelph, Ontario, Canada).

[2] = system: diffuse axonal injury in rats (impact acceleration injury); assay: Impact acceleration injury model in rats: APP / active caspase-3 positive axons by immunohistochemistry; assay type: in vivo, Sprague-Dawley rats; conditions: for APP positive axons: 30 days post injury, p<0.05 versus 148 in unsupplemented animals (sham 6)
Text: (§2) Method. The impact acceleration injury model in rats described in Marmarou et al., J Neurosurg. 80:291-300 (1994), incorporated herein by reference, was used for the study. Four groups of ten (n=40) of adult male Sprague-Dawley rats were subjected to an impact acceleration injury resulting in reproducible severe traumatic brain injury. Rats weighing between 350 and 400 g received induction anesthesia and subsequently maintained on inhaled anesthetic using a modified medical anesthesia machine. The animals were shaved and prepared in sterile fashion for surgery, followed by subcutaneous injection of local anesthetic into the planned incision site. A 3 cm midline incision in the scalp was made, periosteal membranes separated, exposing bregma and lambda. A metal disk 10 mm in diameter and 3 mm thick was attached to the skull with cyanoacrylate and centered between bregma and lambda. The animal was placed prone on a foam bed with the metal disk directly under a plexiglas tube. A 450 g brass weight was dropped through the tube from a height of 2 meters striking the disk. The animal was then ventilated on 100% O2 while the skull inspected and the incision repaired. When the animal recovered spontaneous respirations, anesthesia was discontinued and the animal returned to its cage for postoperative observation (Marmarou et al., supra). All procedures involving live animals were approved by the Institutional Animal Care and Use Committee of West Virginia University, and were performed according to the principles of the Guide for the Care and Use of Laboratory Animals, published by the Institute of Laboratory Resources, National Research Council (NIH publication 85-23-2985).
as §1
Tissue Preparation and Immunohistochemical Labeling. Following 30 day post-injury, surviving animals were euthanized with a lethal dose injection of 0.5 ml Ketamine and 0.5 ml Xylazine. […]

[3] = Tolerability of daily oral supplementation in the impact acceleration model; assay type: in vivo; conditions: 10 or 40 mg/kg/day
Text: as §2, with “All procedures involving live animals were approved by the Institutional Animal Care and Use Committee of West Virginia University, and were performed according to the principles of the Guide for the Care and Use of Laboratory Animals, published by the Institute of Laboratory Resources, National Research Council (NIH publication 85-23-2985).” left out

For `CC/C=C\C/C=C\C/C=C\C/C=C\C/C=C\C/C=C\CCC(=O)O` [DHA, (all-Z)-4,7,10,13,16,19-docosahexaenoic acid], the “decrease in AA:EPA ratio, a marker of inflammation” value ([1]; 10 mg/kg/day DHA, 30 days after brain trauma, serum) was 72%, the “increased levels of serum DHA over initial levels” value ([1]; 10 mg/kg/day DHA, 30 days after brain trauma) was 123% and the “increased levels of serum DHA over initial levels” value ([1]; 40 mg/kg/day DHA, 30 days after brain trauma) was 176%. The “total EPA and DHA in serum phospholipids compared to the sham animals” value ([1]; end of supplementation period, 10 and 40 mg/kg/day) was “dose-response effect in the increase”, the “serum arachidonic acid levels” value ([1]; supplemented animals, end of supplementation period) was “non-significant increase” and the APP positive axons ([2]; 10 mg/kg/day DHA, corticospinal tract and medial lemnisci) was 26 axons per mm^2. The APP positive axons ([2]; 40 mg/kg/day DHA, corticospinal tract and medial lemnisci) was 20 axons per mm^2, the “APP labeling of axons, qualitative” value ([2]; 10 or 40 mg/kg/day DHA, corticospinal tract and medial lemnisci) was “only rare APP positive axons, similar to sham injured animals” and the “active caspase-3 positive axons” value ([2]; 10 or 40 mg/kg/day oral, 30 days following injury, data not shown) was “significant decrease”. The “observed untoward effects of daily oral supplementation” value [3] was “without any observed untoward effects”.
